Assays:
Cytochrome P450 2D6 = Cytochrome P450 2D6 (Homo sapiens, UniProt P10635); assay: Inhibition of CYP2D6 in human liver microsomes at 10 uM by LC-MS/MS analysis; format: ADME
Cytochrome P450 1A2 = target: T1, Cytochrome P450 1A2 (Homo sapiens, UniProt P05177); assay: Inhibition of CYP1A2 in human liver microsomes at 10 uM by LC-MS/MS analysis; format: ADME
T1 sequence (P05177 whole entry): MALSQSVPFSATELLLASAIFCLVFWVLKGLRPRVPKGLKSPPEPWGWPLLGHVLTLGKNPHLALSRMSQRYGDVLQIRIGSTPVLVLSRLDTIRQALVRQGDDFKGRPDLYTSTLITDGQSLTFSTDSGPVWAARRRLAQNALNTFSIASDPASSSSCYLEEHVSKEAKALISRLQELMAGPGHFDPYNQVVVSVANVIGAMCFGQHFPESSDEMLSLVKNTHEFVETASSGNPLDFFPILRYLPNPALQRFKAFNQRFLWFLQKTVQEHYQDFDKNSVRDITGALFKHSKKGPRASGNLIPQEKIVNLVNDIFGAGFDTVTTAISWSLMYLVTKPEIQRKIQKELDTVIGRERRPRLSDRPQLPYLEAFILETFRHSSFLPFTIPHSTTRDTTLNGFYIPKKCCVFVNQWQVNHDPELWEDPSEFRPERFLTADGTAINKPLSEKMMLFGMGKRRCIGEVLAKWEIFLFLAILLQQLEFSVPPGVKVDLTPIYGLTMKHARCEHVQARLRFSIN

Cytochrome P450 2C9 = Cytochrome P450 2C9 (Homo sapiens, UniProt P11712); assay: Inhibition of CYP2C9 in human liver microsomes at 10 uM by LC-MS/MS analysis; format: ADME
Cytochrome P450 2E1 = Cytochrome P450 2E1 (Homo sapiens, UniProt P05181); assay: Inhibition of CYP2E1 in human liver microsomes at 10 uM by LC-MS/MS analysis; format: ADME
[1] = Clearance in Lewis rat at 1 mg/kg, iv measured upto 24 hrs by LC-MS/MS analysis; format: ADME, organism-based; conditions: in vivo
[2] = Tmax in BALB/c mouse at 1 mg/kg, iv measured upto 24 hrs by LC-MS/MS analysis; format: ADME, organism-based; conditions: in vivo
[3] = Oral bioavailability in Lewis rat at 10 mg/kg measured upto 24 hrs by LC-MS/MS analysis; format: ADME, organism-based; conditions: in vivo
[4] = Metabolic stability in rat liver microsomes preincubated for 5 mins followed by NADPH addition and measured upto 30 mins by LC-MS/MS analysis; format: ADME, Microsome; conditions: 0.5 h, time <=35 min
[5] = Oral bioavailability in BALB/c mouse at 10 mg/kg measured upto 24 hrs by LC-MS/MS analysis; format: ADME, organism-based; conditions: in vivo
[6] = Tmax in BALB/c mouse at 10 mg/kg, po measured upto 24 hrs by LC-MS/MS analysis; format: ADME, organism-based; conditions: in vivo
[7] = Metabolic stability in mouse liver microsomes preincubated for 5 mins followed by NADPH addition and measured upto 30 mins by LC-MS/MS analysis; format: ADME, Microsome; conditions: 0.5 h, time <=35 min
[8] = AUClast in BALB/c mouse at 1 mg/kg, iv measured upto 24 hrs by LC-MS/MS analysis; format: ADME, organism-based; set-up: route intravenous, dose 1 mg/kg, time <=24; conditions: in vivo
[9] = Cmax in Lewis rat at 1 mg/kg, iv measured upto 24 hrs by LC-MS/MS analysis; format: ADME, organism-based; set-up: route intravenous, dose 1 mg/kg, time <=24; conditions: in vivo
[10] = Metabolic stability in dog liver microsomes preincubated for 5 mins followed by NADPH addition and measured upto 30 mins by LC-MS/MS analysis; format: ADME, Canis lupus familiaris, Microsome; conditions: 0.5 h, time <=35 min
[11] = Clearance in BALB/c mouse at 1 mg/kg, iv measured upto 24 hrs by LC-MS/MS analysis; format: ADME, organism-based; conditions: in vivo
[12] = Metabolic stability in monkey liver microsomes preincubated for 5 mins followed by NADPH addition and measured upto 30 mins by LC-MS/MS analysis; format: ADME, Macaca mulatta, Microsome; conditions: rhesus monkey, 0.5 h, time <=35 min
[13] = Apparent permeability across apical to basolateral side in human Caco-2 cells at 5 uM measured upto 120 mins in orbital shaker; format: ADME, cell-based
[14] = AUClast in BALB/c mouse at 10 mg/kg, po measured upto 24 hrs by LC-MS/MS analysis; format: ADME, organism-based; set-up: route oral, dose 10 mg/kg, time <=24; conditions: in vivo
[15] = AUClast in Lewis rat at 10 mg/kg, po measured upto 24 hrs by LC-MS/MS analysis; format: ADME, organism-based; set-up: route oral, dose 10 mg/kg, time <=24; conditions: in vivo
[16] = Volume of distribution at steady state in Lewis rat at 1 mg/kg, iv measured upto 24 hrs by LC-MS/MS analysis; format: ADME, organism-based; conditions: in vivo, read-out: Vdss
Cytochrome P450 2B6 = target: T2, Cytochrome P450 2B6 (Homo sapiens, UniProt P20813); assay: Inhibition of CYP2B6 in human liver microsomes at 10 uM by LC-MS/MS analysis; format: ADME
T2 sequence (P20813 whole entry): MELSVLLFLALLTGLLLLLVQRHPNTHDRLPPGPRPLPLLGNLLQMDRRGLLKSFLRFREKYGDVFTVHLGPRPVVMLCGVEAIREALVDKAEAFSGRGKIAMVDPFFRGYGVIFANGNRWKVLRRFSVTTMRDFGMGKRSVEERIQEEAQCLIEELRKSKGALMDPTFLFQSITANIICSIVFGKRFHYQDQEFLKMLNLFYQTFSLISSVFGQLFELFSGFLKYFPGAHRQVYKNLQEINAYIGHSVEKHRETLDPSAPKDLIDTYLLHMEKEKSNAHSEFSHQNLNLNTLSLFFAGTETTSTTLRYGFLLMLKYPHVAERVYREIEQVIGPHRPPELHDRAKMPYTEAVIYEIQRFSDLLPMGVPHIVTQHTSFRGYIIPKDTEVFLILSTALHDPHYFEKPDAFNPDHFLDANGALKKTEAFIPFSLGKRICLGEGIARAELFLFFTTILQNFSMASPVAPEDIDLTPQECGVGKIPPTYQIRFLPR

[17] = Cmax in BALB/c mouse at 10 mg/kg, po measured upto 24 hrs by LC-MS/MS analysis; format: ADME, organism-based; set-up: route oral, dose 10 mg/kg, time <=24; conditions: in vivo
[18] = Cmax in BALB/c mouse at 1 mg/kg, iv measured upto 24 hrs by LC-MS/MS analysis; format: ADME, organism-based; set-up: route intravenous, dose 1 mg/kg, time <=24; conditions: in vivo
[19] = Volume of distribution at steady state in BALB/c mouse at 1 mg/kg, iv measured upto 24 hrs by LC-MS/MS analysis; format: ADME, organism-based; conditions: in vivo, read-out: Vdss
[20] = Tmax in Lewis rat at 10 mg/kg, po measured upto 24 hrs by LC-MS/MS analysis; format: ADME, organism-based; conditions: in vivo
[21] = Apparent permeability across basolateral to apical side in human Caco-2 cells at 5 uM measured upto 120 mins in orbital shaker; format: ADME, cell-based
[22] = Cmax in Lewis rat at 10 mg/kg, po measured upto 24 hrs by LC-MS/MS analysis; format: ADME, organism-based; set-up: route oral, dose 10 mg/kg, time <=24; conditions: in vivo
Cytochrome P450 3A4 = Cytochrome P450 3A4 (Homo sapiens, UniProt P08684); assay: Inhibition of CYP3A4 in human liver microsomes at 10 uM by LC-MS/MS analysis; format: ADME
Cytochrome P450 2C19 = Cytochrome P450 2C19 (Homo sapiens, UniProt P33261); assay: Inhibition of CYP2C19 in human liver microsomes at 10 uM by LC-MS/MS analysis; format: ADME
[23] = Metabolic stability in human liver microsomes preincubated for 5 mins followed by NADPH addition and measured upto 30 mins by LC-MS/MS analysis; format: ADME, Microsome; conditions: 0.5 h, time <=35 min
[24] = Half life in BALB/c mouse at 1 mg/kg, iv measured upto 24 hrs by LC-MS/MS analysis; format: ADME, organism-based; conditions: in vivo

Cytochrome P450 2E1, sequence (P05181 whole entry): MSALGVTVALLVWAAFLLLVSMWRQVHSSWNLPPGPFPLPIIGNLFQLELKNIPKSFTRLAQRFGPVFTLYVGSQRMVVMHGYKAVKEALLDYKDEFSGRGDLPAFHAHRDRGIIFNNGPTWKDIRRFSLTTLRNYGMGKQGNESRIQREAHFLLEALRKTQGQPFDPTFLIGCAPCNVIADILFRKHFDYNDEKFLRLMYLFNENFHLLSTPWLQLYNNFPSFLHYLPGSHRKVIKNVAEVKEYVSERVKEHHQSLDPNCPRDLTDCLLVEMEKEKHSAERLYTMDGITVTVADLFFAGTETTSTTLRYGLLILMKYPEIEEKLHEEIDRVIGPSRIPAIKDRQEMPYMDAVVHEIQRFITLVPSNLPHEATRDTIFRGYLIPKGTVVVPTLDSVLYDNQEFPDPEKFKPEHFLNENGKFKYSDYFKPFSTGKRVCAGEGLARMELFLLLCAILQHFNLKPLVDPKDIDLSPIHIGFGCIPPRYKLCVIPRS
Cytochrome P450 2C19, sequence (P33261 whole entry): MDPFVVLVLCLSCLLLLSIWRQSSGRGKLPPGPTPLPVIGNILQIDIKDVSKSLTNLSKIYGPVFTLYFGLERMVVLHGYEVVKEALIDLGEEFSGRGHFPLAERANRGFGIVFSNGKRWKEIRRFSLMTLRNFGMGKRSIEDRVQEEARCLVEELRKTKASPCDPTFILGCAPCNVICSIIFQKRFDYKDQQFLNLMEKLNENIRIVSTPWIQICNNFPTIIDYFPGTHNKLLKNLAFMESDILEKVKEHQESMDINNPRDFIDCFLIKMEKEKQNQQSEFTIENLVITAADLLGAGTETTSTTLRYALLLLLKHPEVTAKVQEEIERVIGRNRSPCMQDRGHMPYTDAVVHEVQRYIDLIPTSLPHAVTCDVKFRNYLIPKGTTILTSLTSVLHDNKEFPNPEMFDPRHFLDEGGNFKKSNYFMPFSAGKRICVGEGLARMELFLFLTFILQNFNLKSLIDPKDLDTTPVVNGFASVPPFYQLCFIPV
Cytochrome P450 2C9, sequence (P11712 whole entry): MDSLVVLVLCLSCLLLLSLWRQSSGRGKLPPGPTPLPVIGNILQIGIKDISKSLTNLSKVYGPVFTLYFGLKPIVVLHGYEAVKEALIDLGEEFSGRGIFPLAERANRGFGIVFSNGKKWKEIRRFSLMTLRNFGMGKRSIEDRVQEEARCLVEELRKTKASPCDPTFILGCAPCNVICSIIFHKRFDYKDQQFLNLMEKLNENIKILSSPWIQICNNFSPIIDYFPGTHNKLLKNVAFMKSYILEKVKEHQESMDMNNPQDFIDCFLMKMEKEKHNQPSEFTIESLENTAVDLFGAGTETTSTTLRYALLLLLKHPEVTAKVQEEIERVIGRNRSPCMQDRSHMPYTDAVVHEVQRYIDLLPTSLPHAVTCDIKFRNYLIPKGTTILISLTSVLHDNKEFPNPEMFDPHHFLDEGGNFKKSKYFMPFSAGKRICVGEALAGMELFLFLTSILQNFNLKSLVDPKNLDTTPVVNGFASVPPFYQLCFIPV
Cytochrome P450 2D6, sequence (P10635 whole entry): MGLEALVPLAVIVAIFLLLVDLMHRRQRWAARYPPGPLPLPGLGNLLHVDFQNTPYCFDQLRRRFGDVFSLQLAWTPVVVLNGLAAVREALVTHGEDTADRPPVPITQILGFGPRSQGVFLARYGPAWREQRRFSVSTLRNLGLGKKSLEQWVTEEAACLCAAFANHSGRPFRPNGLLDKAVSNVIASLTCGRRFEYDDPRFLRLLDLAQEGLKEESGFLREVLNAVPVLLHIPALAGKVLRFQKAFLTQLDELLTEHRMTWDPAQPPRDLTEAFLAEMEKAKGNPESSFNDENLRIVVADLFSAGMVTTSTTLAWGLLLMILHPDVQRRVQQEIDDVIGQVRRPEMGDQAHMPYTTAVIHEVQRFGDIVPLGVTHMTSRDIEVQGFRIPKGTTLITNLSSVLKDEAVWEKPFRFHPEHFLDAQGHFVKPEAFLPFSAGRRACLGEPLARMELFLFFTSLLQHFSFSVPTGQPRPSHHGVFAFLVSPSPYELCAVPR
Cytochrome P450 3A4, sequence (P08684 whole entry): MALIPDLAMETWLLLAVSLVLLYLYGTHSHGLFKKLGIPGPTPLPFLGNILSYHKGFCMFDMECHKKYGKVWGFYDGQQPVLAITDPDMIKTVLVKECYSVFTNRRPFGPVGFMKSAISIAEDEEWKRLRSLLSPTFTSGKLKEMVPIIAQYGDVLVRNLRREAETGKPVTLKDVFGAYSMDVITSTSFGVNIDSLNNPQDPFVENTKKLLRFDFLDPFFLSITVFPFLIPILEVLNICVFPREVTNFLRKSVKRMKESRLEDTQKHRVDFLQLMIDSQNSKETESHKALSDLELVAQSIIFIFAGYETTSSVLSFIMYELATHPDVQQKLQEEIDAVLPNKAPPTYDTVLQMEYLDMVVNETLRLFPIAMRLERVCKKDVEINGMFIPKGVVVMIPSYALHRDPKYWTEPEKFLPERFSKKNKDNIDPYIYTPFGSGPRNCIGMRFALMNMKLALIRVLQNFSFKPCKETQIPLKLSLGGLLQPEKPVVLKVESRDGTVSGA

| Structure (SMILES) | inhibition (INH) (Cytochrome P450 2D6) | inhibition (INH) (Cytochrome P450 1A2) | inhibition (INH) (Cytochrome P450 2C9) | inhibition (INH) (Cytochrome P450 2E1) | clearance [1] [mL/min/kg] | Tmax [2] [min] | bioavailability [3] [%] | Stability [4] | bioavailability [5] [%] | Tmax [6] [h] | Stability [7] | AUC(0-t) at 24 h [8] [µM·h] | Cmax [9] [µM] | Stability [10] | clearance [11] [mL/min/kg] | Stability [12] | Papp A→B at 2 h, 5 µM [13] [×10⁻⁶ cm/s] | AUC(0-t) at 24 h [14] [µM·h] | AUC(0-t) at 24 h [15] [µM·h] | Vd [16] [L/kg] | further results |
| --- | --- | --- | --- | --- | --- | --- | --- | --- | --- | --- | --- | --- | --- | --- | --- | --- | --- | --- | --- | --- | --- |
| Cc1c(-c2ccc(NC(=O)c3c(F)cccc3Cl)cc2)cccc1-c1nn(C)c(=O)o1 | Not Active | Not Active | Not Active | Not Active | 1 | 4.8 | 60 | Stable | 100 | 1 | Stable | 4 | 5 | Stable | 8 | Stable | 12.3 | 44 | 167 | 1 | inhibition (INH) (Cytochrome P450 2B6): Not Active; Cmax [17]: 4.7 µM; Cmax [18]: 4.3 µM; Vd [19]: 2.3 L/kg; Tmax [20]: 2 h; Papp B→A at 2 h, 5 µM [21]: 4.5 ×10⁻⁶ cm/s; Cmax [22]: 10 µM; inhibition (INH) (Cytochrome P450 3A4): Not Active; inhibition (INH) (Cytochrome P450 2C19): Not Active; Stability [23]: Stable; half-life [24]: 5 h |
| Cc1c(-c2ccc(NC(=O)c3c(F)cccc3F)cc2)cccc1-c1nn(C)c(=O)o1 | Not Active | Not Active | Not Active | Not Active | 0.9 | 4.8 | 100 | Stable | 79 | 1 | Stable | 7.1 | 4 | Stable | 5.2 | Stable | 14.1 | 56 | 353 | 1 | inhibition (INH) (Cytochrome P450 2B6): Not Active; Cmax [17]: 4 µM; Cmax [18]: 4.2 µM; Vd [19]: 2.3 L/kg; Tmax [20]: 8 h; Papp B→A at 2 h, 5 µM [21]: 6.2 ×10⁻⁶ cm/s; Cmax [22]: 20 µM; inhibition (INH) (Cytochrome P450 3A4): Not Active; inhibition (INH) (Cytochrome P450 2C19): Not Active; Stability [23]: Stable; half-life [24]: 6.4 h |
